In brackets after ≈: the same amount, converted by molar mass. Where only a bound is given, the exact number is not on record here.

Test [1] deals with T1, Enoyl-[acyl-carrier-protein] reductase [NADH] FabI (Escherichia coli K-12, UniProt P0AEK4).
T1 sequence (P0AEK4 whole entry): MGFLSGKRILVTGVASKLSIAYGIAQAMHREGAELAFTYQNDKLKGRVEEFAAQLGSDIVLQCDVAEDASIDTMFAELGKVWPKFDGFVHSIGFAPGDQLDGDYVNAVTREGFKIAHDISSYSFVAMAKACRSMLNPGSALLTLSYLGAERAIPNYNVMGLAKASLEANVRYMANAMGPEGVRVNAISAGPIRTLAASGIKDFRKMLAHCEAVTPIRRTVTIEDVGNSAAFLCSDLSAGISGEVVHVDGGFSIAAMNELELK
The test can be described thus: Inhibition of Escherichia coli enoyl-ACP reductase FabI.

Test [2] concerns Streptococcus pneumoniae. The experiment in a line: Antibacterial activity against Streptococcus pneumoniae KU197 mutant by broth microdilution method. The class given is functional.
Test [3] addresses T2, Enoyl-(Acyl-carrier-protein) reductase (Streptococcus pneumoniae, UniProt Q9FBC5).
T2 sequence (Q9FBC5 whole entry): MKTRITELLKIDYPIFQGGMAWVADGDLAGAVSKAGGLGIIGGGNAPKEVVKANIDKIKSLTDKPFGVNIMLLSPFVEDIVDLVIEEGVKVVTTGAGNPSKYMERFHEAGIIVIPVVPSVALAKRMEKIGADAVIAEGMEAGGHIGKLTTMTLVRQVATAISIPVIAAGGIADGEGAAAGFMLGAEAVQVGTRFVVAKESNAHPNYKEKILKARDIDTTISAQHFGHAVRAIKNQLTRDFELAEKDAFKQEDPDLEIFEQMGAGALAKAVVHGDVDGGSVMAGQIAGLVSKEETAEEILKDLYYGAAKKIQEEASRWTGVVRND
The test can be described thus: Inhibition of Streptococcus pneumoniae enoyl-ACP reductase FabK.

Test [4] concerns K562. The test can be described thus: Cytotoxicity against human K562 cells. The class given is functional, cell-based.

Consider `COc1ccc2nc(NC(=O)NCc3nc4ccccc4[nH]3)sc2c1`, for which the IC50 in test [1] is greater than 32 µM; in test [3], 2 µM. 16 µg/mL (≈ 45.3 µM) was the least that counted as inhibitory in test [2] (MIC).
With `O=C(NCc1nc(-c2ccccc2)c[nH]1)Nc1ncc(-c2ccccc2)s1`, the IC50 in test [1] was greater than 32 µM; in test [3] it was 0.38 µM. Moreover, it took 4 µg/mL (≈ 10.7 µM) to inhibit growth in test [2] (MIC).
`NC(=O)c1ccc(Sc2cnc(NC(=O)NCc3nc(-c4ccccc4)c[nH]3)s2)cc1`: the 50% inhibitory concentration (IC50) was greater than 32 µM in test [1] and 0.037 µM in test [3]. It took 2 µg/mL (≈ 4.44 µM) to inhibit growth in test [2] (MIC).
The like results for `O=C(NCc1nc(-c2ccccc2)c[nH]1)Nc1ncc(Sc2ccccc2)s1` were, in that order, greater than 33 µM, 0.037 µM and 2 µg/mL (≈ 4.91 µM).
With `O=C(Nc1nc2ccccc2s1)OCc1nc2ccccc2[nH]1`, the IC50 in test [1] and in test [3] was greater than 32 µM in each case. Besides, the minimum inhibitory concentration (MIC) in test [2] was greater than 32 µg/mL.
Take `COc1cccc2sc(NC(=O)NCc3nc4ccccc4[nH]3)nc12`: the IC50 in test [1] and in test [3] was greater than 32 µM each time.
`O=C(NCc1ncc(-c2cccc(Br)c2)[nH]1)Nc1ncc(Sc2ccccn2)s1` yielded an IC50 in test [1] greater than 32 µM. In test [2], this compound gave an MIC of 16 µg/mL (≈ 32.8 µM).
In the case of `O=C(NCc1nc2ccccc2[nH]1)Nc1nc2ccc(F)cc2s1`, the half-maximal inhibitory concentration (IC50) in test [1] was greater than 32 µM; in test [3] it was 6.4 µM.
`CS(=O)(=O)c1ccc2nc(NC(=O)NCc3cccnc3)sc2c1`: the IC50 in test [1] was greater than 32 µM; in test [3], 23 µM. The MIC in test [2] was greater than 32 µg/mL.
On to `O=C(NCc1nc(-c2ccccc2)c[nH]1)Nc1nc(-c2ccccc2)cs1`, for which the half-inhibitory concentration (IC50) in test [1] and in test [3] was greater than 32 µM in each case.
On to `O=C(CSc1nc2ccccc2[nH]1)NCc1nc2ccccc2s1`, for which the IC50 in test [1] and in test [3] was greater than 32 µM in each case. This compound also yielded an MIC in test [2] greater than 32 µg/mL.
Consider `CS(=O)(=O)c1ccc2nc(NC(=O)NCCc3cnc[nH]3)sc2c1`, for which the IC50 in test [1] and in test [3] was greater than 32 µM throughout.
For the compound `CS(=O)(=O)c1ccc2nc(NC(=O)NCc3nc4ccccc4[nH]3)sc2c1`, the results for the concentration for half-maximal inhibition (IC50) in test [1] and in test [3] were greater than 32 µM and 0.74 µM, respectively. In addition, in test [2], the lowest concentration to inhibit growth (MIC) was 4 µg/mL (≈ 9.96 µM).
For the compound `CS(=O)(=O)c1ccc2nc(NC(=O)NCc3nc(-c4ccccc4)c[nH]3)sc2c1`, the IC50 is greater than 32 µM in test [1] and 0.088 µM in test [3]. Further, it took 0.5 µg/mL (≈ 1.17 µM) to inhibit growth in test [2] (MIC).
`CS(=O)(=O)c1ccc2nc(NC(=O)NCc3ccc(-c4ccccn4)s3)sc2c1`: the 50% inhibitory concentration (IC50) in test [1] is greater than 32 µM; in test [3], 3.4 µM. Moreover, the minimum inhibitory concentration (MIC) in test [2] was greater than 32 µg/mL.
The like results for `O=C(CO/N=C/c1cccc([N+](=O)[O-])c1)Nc1nc2ccccc2s1` were, in that order, greater than 32 µM, 1.1 µM and greater than 32 µg/mL.
On the same counts, the results for `Cc1ccc2nc(NC(=O)NCc3nc4ccccc4[nH]3)sc2c1` are greater than 32 µM, 2.6 µM and 16 µg/mL (≈ 47.4 µM).
For `O=C(CSc1nc2ccccc2[nH]1)Nc1nc2ccccc2s1`, the IC50 in test [1] and in test [3] was greater than 32 µM in each case. In addition, the MIC in test [2] is greater than 32 µg/mL.
As for `COc1ccc2sc(NC(=O)NCc3nc4ccccc4[nH]3)nc2c1`, the IC50 in test [1] and in test [3] was greater than 32 µM each time.
In the case of `O=C(NCc1ncc(-c2ccccc2)[nH]1)Nc1ncc(Sc2ccccn2)s1`, the half-inhibitory concentration (IC50) in test [1] was greater than 32 µM. This compound also registered an MIC in test [2] of 2 µg/mL (≈ 4.9 µM).
`O=C(NCc1nc(-c2ccccc2)c[nH]1)Nc1ncc(Sc2ccc(C(=O)O)cc2)s1`: the results for the 50% inhibitory concentration (IC50) in test [1] and in test [3] were greater than 32 µM and 0.098 µM, respectively. The same compound registered a minimum inhibitory concentration (MIC) in test [2] of 8 µg/mL (≈ 17.7 µM).
As for `O=C(NCc1ncc(-c2ccc(Br)cc2)[nH]1)Nc1ncc(Sc2ccccn2)s1`, the IC50 is greater than 20 µM in test [4] and greater than 32 µM in test [1]. The same compound showed a minimal inhibitory concentration (MIC) in test [2] of 0.25 µg/mL (≈ 0.513 µM).
Take `CS(=O)(=O)c1ccc2nc(NC(=O)NCc3cccs3)sc2c1`: the 50% inhibitory concentration (IC50) is greater than 32 µM in test [1] and 30 µM in test [3]. The compound further yielded an MIC in test [2] greater than 32 µg/mL.
In test [3], `Oc1cc(Cl)ccc1Oc1ccc(Cl)cc1Cl` [TRICLOSAN] showed an IC50 greater than 32 µM.
For `O=C(NCc1nc2ccccc2[nH]1)Nc1nc2ccccc2s1`, the IC50 in test [1] was greater than 32 µM; in test [3] it was 6.9 µM. Besides, the MIC in test [2] was determined as 32 µg/mL (≈ 99 µM).
As to `N#Cc1ccc2nc(NC(=O)NCc3nc4ccccc4[nH]3)sc2c1`, the 50% inhibitory concentration (IC50) was greater than 32 µM in test [1] and 4.5 µM in test [3]. The compound further registered an MIC in test [2] of 8 µg/mL (≈ 23 µM).
On to `O=C(NCc1ncc(-c2ccc(Cl)c(Cl)c2)[nH]1)Nc1ncc(Sc2ccccn2)s1`, for which the IC50 was greater than 32 µM in test [1] and 0.0037 µM in test [3]. Moreover, it took 1 µg/mL (≈ 2.09 µM) to inhibit growth in test [2] (MIC).

The values are drawn from ChEMBL document CHEMBL1137543, “Phenylimidazole derivatives as specific inhibitors of bacterial enoyl-acyl carrier protein reductase FabK” (Bioorg Med Chem, 2007).
